Measurements from ChEMBL document CHEMBL5550154, “Novel biaryloxazolidinone derivatives with broad-spectrum antibacterial activity, favorable drug-like profiles and in vivo efficacy against linezolid-resistant Staphylococcusaureus” (Eur J Med Chem, 2024).
In brackets after ≈: the same amount, converted by molar mass.

Columns and labels:
[1] = Apparent volume of distribution in Sprague-Dawley rat at 1 mg/kg, iv measured upto 24 hrs by LC-MS analysis; type: ADME, organism-based; settings: in vivo, read-out: Vz
[2] = system: Staphylococcus aureus; assay: Antibacterial activity against linezolid-resistant Staphylococcus aureus assessed as inhibition of bacterial growth incubated for 16 to 20 hrs by CLSI based broth liquid microdilution method; type: functional; settings: time 16-20 hrs
[3] = system: Staphylococcus aureus; assay: Antibacterial activity against Staphylococcus aureus ATCC29213 assessed as inhibition of bacterial growth incubated for 16 to 20 hrs by CLSI based broth liquid microdilution method; type: functional; settings: time 16-20 hrs
[4] = Plasma protein binding in dog incubated for 6 hrs by LC-MS/MS analysis; type: ADME, cell-free, Canis lupus familiaris; settings: read-out: PPB (converted)
[5] = Cytotoxicity against human HepG2 cells incubated for 48 hrs by MTT assay; type: toxicity, cell-based
[6] = Stability in mouse plasma assessed as parent compound remaining at 37 degreeC measured upto 60 mins by HPLC analysis; type: ADME, cell-free; settings: read-out: Stability
[7] = AUC (0 to t) in Sprague-Dawley rat at 10 mg/kg, IG measured upto 24 hrs by LC-MS analysis; type: ADME, organism-based; settings: in vivo, po
[8] = Stability in rat plasma assessed as parent compound remaining at 25 degreeC measured upto 60 mins by HPLC analysis; type: ADME, cell-free; settings: read-out: Stability
[9] = Stability in human plasma assessed as parent compound remaining at 37 degreeC measured upto 60 mins by HPLC analysis; type: ADME, cell-free; settings: read-out: Stability
[10] = Plasma protein binding in human incubated for 6 hrs by LC-MS/MS analysis; type: ADME, cell-free; settings: read-out: PPB (converted)
[11] = Stability in dog plasma assessed as parent compound remaining at 37 degreeC measured upto 60 mins by HPLC analysis; type: ADME, cell-free, Canis lupus familiaris; settings: read-out: Stability
[12] = system: Staphylococcus aureus; assay: Antibacterial activity against methicillin-sensitive Staphylococcus aureus assessed as inhibition of bacterial growth incubated for 16 to 20 hrs by CLSI based broth liquid microdilution method; type: functional; settings: time 16-20 hrs
[13] = system: Staphylococcus aureus; assay: Antibacterial activity against methicillin-resistant Staphylococcus aureus assessed as inhibition of bacterial growth incubated for 16 to 20 hrs by CLSI based broth liquid microdilution method; type: functional; settings: time 16-20 hrs
[14] = Plasma protein binding in monkey incubated for 6 hrs by LC-MS/MS analysis; type: ADME, cell-free, Macaca mulatta; settings: rhesus monkey, read-out: PPB (converted)
[15] = Microsomal stability in monkey liver microsomes assessed as intrinsic clearance pretreated with compound upto 60 mins followed by NADPH addition and measured after 60 mins by LC/MS analysis; type: ADME, Macaca mulatta, Microsome; settings: rhesus monkey, time < 120 min, read-out: CLH
[16] = Microsomal stability in mouse liver microsomes assessed as elimination half life pretreated with compound upto 60 mins followed by NADPH addition and measured after 60 mins by LC/MS analysis; type: ADME, Microsome; settings: liver microsomes, time < 120 min, read-out: beta t1/2
[17] = molecular target: Cytochrome P450 2D6 (Homo sapiens, UniProt P10635); assay: Inhibition of CYP2D6 in human liver microsomes […] preincubated with compound for 5 mins followed by substrate addition and measured after 120 mins in presence of NADPH by LC-MS/MS analysis; type: ADME, Microsome
Chain of Cytochrome P450 2D6 (P10635 whole entry): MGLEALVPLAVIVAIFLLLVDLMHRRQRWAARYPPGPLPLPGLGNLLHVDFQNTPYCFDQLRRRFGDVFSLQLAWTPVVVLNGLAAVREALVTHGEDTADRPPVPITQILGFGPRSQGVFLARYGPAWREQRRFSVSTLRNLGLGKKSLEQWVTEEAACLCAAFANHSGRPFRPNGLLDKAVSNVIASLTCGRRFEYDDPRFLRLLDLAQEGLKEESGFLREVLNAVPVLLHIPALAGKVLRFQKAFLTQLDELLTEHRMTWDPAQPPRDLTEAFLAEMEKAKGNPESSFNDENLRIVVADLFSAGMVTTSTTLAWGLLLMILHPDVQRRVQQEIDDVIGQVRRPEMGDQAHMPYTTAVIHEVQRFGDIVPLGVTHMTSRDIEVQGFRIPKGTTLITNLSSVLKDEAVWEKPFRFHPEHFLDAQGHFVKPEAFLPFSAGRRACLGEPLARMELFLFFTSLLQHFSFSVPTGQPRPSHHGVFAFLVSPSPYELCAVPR

[18] = Aqueous solubility of compound at pH 2 by LC-MS/MS analysis; type: physicochemical; settings: buffer
[19] = Microsomal stability in rat liver microsomes assessed as elimination half life pretreated with compound upto 60 mins followed by NADPH addition and measured after 60 mins by LC/MS analysis; type: ADME, Microsome; settings: liver microsomes, read-out: beta t1/2
[20] = Microsomal stability in dog liver microsomes assessed as parent compound remaining pretreated with compound upto 60 mins followed by NADPH addition and measured after 60 mins by LC/MS analysis; type: ADME, Canis lupus familiaris, Microsome; settings: time < 120 min, read-out: Stability
[21] = Stability in human plasma assessed as parent compound remaining at 25 degreeC measured upto 60 mins by HPLC analysis; type: ADME, cell-free; settings: for remaining at 1 h: read-out: Stability
[22] = Microsomal stability in dog liver microsomes assessed as intrinsic clearance pretreated with compound upto 60 mins followed by NADPH addition and measured after 60 mins by LC/MS analysis; type: ADME, Canis lupus familiaris, Microsome; settings: time < 120 min; for microsomal CLint: liver microsomes, read-out: CLH
[23] = Plasma protein binding in rat incubated for 6 hrs by LC-MS/MS analysis; type: ADME, cell-free; settings: read-out: PPB (converted)
[24] = Microsomal stability in human liver microsomes assessed as parent compound remaining pretreated with compound upto 60 mins followed by NADPH addition and measured after 60 mins by LC/MS analysis; type: ADME, Microsome; settings: liver microsomes, time < 120 min, read-out: Stability
[25] = Cmax in ICR mouse at 10 mg/kg, IG measured upto 24 hrs by LC-MS analysis; type: ADME, organism-based; settings: in vivo, po
[26] = Efflux ratio of apparent permeability across […] side in human Caco-2 cells; type: ADME, cell-based
[27] = Clearance in ICR mouse at 1 mg/kg, iv measured upto 24 hrs by LC-MS analysis; type: ADME, organism-based; settings: in vivo
[28] = Tmax in ICR mouse at 10 mg/kg, IG measured upto 24 hrs by LC-MS analysis; type: ADME, organism-based; settings: in vivo, po
[29] = Apparent permeability across apical to basolateral side in human Caco-2 cells; type: ADME, cell-based
[30] = Half life in ICR mouse at 1 mg/kg, iv measured upto 24 hrs by LC-MS analysis; type: ADME, organism-based; settings: in vivo
[31] = molecular target: T1, Amine oxidase [flavin-containing] A (Homo sapiens, UniProt P21397); assay: Inhibition of MAO-A (unknown origin) preincubated with compound for 15 mins followed by substrate addition and measured after 60 mins by luminescence based microplate reader analysis; type: toxicity
T1 sequence (P21397 whole entry): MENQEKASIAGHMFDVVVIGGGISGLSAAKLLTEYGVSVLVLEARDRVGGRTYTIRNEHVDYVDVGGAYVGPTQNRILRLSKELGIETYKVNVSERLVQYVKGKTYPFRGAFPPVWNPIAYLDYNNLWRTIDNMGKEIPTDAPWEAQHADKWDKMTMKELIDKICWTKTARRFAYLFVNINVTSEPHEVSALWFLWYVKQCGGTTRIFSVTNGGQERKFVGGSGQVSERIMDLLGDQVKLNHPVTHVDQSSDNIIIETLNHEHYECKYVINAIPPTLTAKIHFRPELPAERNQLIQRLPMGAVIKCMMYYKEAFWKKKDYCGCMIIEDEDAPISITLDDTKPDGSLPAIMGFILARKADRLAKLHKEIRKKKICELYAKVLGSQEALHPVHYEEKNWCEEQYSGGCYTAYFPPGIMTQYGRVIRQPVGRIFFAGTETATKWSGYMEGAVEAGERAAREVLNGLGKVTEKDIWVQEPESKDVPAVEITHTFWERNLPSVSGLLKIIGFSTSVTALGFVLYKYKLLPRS

[32] = system: Staphylococcus aureus; assay: Antibacterial activity against methicillin-resistant Staphylococcus aureus assessed as inhibition of bacterial growth; type: functional

| Structure (SMILES) | Vd [1] [L/kg] | MIC [2] [µg/mL] | MIC [3] [µg/mL] | fraction unbound at 6 h [4] | IC50 at 48 h [5] [µM] | remaining at 1 h [6] [%] | AUC(0-t) at 24 h [7] [ng·h/mL] | remaining at 1 h [8] [%] | remaining at 1 h [9] [%] | fraction unbound at 6 h [10] | remaining at 1 h [11] [%] | MIC [12] [µg/mL] | fraction unbound at 6 h [14] | microsomal CLint [15] [µL/min/mg] | half-life [16] [h] | IC50 [17] [µM] | half-life [19] [h] | remaining at 2 h [20] [%] | fraction unbound at 6 h [23] | remaining at 2 h [24] [%] | also measured |
| --- | --- | --- | --- | --- | --- | --- | --- | --- | --- | --- | --- | --- | --- | --- | --- | --- | --- | --- | --- | --- | --- |
| O=C1O[C@@H](CO)CN1c1ccc(-c2ccc(/C=N/N3CCS(=O)(=O)CC3)nc2)c(F)c1 | 0.73 | 0.25 (≈ 0.557 µM) | 0.25 (≈ 0.557 µM) | 0.275 | > 30 | 102 | 2120 | 113 | 104 | 0.223 | 107 | 0.125 (≈ 0.279 µM) | 0.284 | 2.39 | 32.5 | > 30 | 12.1 | 97 | 0.096 | 98.7 | MIC [13]: 0.25 µg/mL (≈ 0.557 µM); solubility [18]: 72.2 µM (≈ 32.4 µg/mL); Stability ([21]; 1 h): 126%; CLH ([22]; microsomes, 2 h): 0.804 µL/min/mg |
| O=C1O[C@@H](CO)CN1c1ccc(-c2ccc(/C=N/N3CCOCC3)nc2)c(F)c1 | 0.81 | 0.125 (≈ 0.312 µM) | 0.06 (≈ 0.15 µM) | 0.169 | > 30 | 98.3 | 8310 | 116 | 98.6 | 0.144 | 115 | 0.06 (≈ 0.15 µM) | 0.215 | 3.25 | 12.2 | > 30 | 10.2 | 96.8 | 0.041 | 66.2 | Cmax [25]: 4810 ng/mL; Ratio [26]: 0.61; MIC [13]: 0.125 µg/mL (≈ 0.312 µM); clearance [27]: 5.9 mL/min/kg; solubility [18]: 52.6 µM (≈ 21.1 µg/mL); Tmax [28]: 2 h; Papp A→B [29]: 36.7 ×10⁻⁶ cm/s; remaining at 1 h [21]: 102%; microsomal CLint [22]: 1.51 µL/min/mg; half-life [30]: 2.1 h; IC50 [31]: 5.64 µM |
| CC(=O)NC[C@H]1CN(c2ccc(N3CCOCC3)c(F)c2)C(=O)O1 [LINEZOLID] | 0.75 |  |  | 0.829 | > 30 | 105 | 13000 | 99.2 | 110 | 0.716 | 110 |  | 0.745 | 0.446 | 10.6 | > 30 | 10.4 | 97.8 | 0.639 | 102 | Cmax [25]: 10000 ng/mL; MIC [32]: 1 µg/mL (≈ 2.96 µM); clearance [27]: 20.6 mL/min/kg; Tmax [28]: 0.25 h; remaining at 1 h [21]: 99.4%; microsomal CLint [22]: 0.667 µL/min/mg; half-life [30]: 0.39 h; IC50 [31]: 20 µM |
